# Laboratory results reported in PubChem BioAssay AID330 (DTP/NCI, 2004).
# Values joined by “and” are separate entries in the source; they are usually repeats but may differ in a detail not shown here. Equal entries are not always repeated. Inconclusive results and toxic doses are left out.
# System: P388 leukemia ip, CD2F1 mice, survival T/C
# Test: NCI In Vivo Anticancer Drug Screen. Data for tumor model P388 Leukemia (intraperitoneal) in CD2F1 (CDF1) mice
# Conditions: endpoint: median survival time, higher = longer survival
# In short: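 Mice carrying the transplanted tumor received test compound or vehicle. Survival was recorded in each group, and the value is the treated-group measurement divided by that of the vehicle-treated control group.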
# [1] = dose: 25.0 mg/kg/injection, schedule: Q01DX009 (ip), vehicle: saline with Tween-80
# [2] = dose: 50.0 mg/kg/injection, schedule: Q01DX009 (ip), vehicle: saline with Tween-80
# [3] = dose: 100.0 mg/kg/injection, schedule: Q01DX009 (ip), vehicle: saline with Tween-80
# [4] = dose: 50.0 mg/kg/injection, schedule: Q01DX009 (ip), vehicle: Klucel (hydroxypropylcellulose) (HPC)
# [5] = dose: 100.0 mg/kg/injection, schedule: Q01DX009 (ip), vehicle: Klucel (hydroxypropylcellulose) (HPC)
# [6] = dose: 200.0 mg/kg/injection, schedule: Q01DX009 (ip), vehicle: Klucel (hydroxypropylcellulose) (HPC)
# [7] = dose: 50.0 mg/kg/injection, schedule: Q01DX005 (ip), vehicle: saline with Tween-80
# [8] = dose: 100.0 mg/kg/injection, schedule: Q01DX005 (ip), vehicle: saline with Tween-80
# [9] = dose: 200.0 mg/kg/injection, schedule: Q01DX005 (ip), vehicle: saline with Tween-80
# [10] = dose: 100.0 mg/kg/injection, schedule: Q01DX001 (ip), vehicle: saline with Tween-80
# [11] = dose: 200.0 mg/kg/injection, schedule: Q01DX001 (ip), vehicle: saline with Tween-80
# [12] = dose: 60.0 mg/kg/injection, schedule: Q01DX005 (ip), vehicle: saline with Tween-80
# [13] = dose: 12.5 mg/kg/injection, schedule: Q04DX003 (ip), vehicle: saline with Tween-80
# [14] = dose: 25.0 mg/kg/injection, schedule: Q04DX003 (ip), vehicle: saline with Tween-80
# [15] = dose: 50.0 mg/kg/injection, schedule: Q04DX003 (ip), vehicle: saline with Tween-80
smiles,measurement,setting,value
CCCCCCCC[N+]1([O-])CCCCC1,T/C,"dose: 50.0 mg/kg/injection, schedule: Q01DX009 (ip), vehicle: saline",97 % of control
same,T/C,"dose: 100.0 mg/kg/injection, schedule: Q01DX009 (ip), vehicle: saline",102 % of control
CCC(CC)CS(=O)(=O)OCCCCOS(=O)(=O)CC(CC)CC,T/C,"dose: 50.0 mg/kg/injection, schedule: Q01DX005 (ip), vehicle: saline",99 % of control
same,T/C,"dose: 100.0 mg/kg/injection, schedule: Q01DX005 (ip), vehicle: saline",107 % of control
same,T/C,"dose: 200.0 mg/kg/injection, schedule: Q01DX005 (ip), vehicle: saline",111 % of control
CN1C(=O)CC(Sc2ccccc2)c2cc(Cl)ccc21 (stereo not given),T/C,[1],99 % of control
same,T/C,[2],100 % of control
same,T/C,[3],97 % of control
CCCCCCCCCCCCCCCCOC(=O)c1ccc(O)cc1,T/C,[4],95 % of control
same,T/C,[5],92 % of control
same,T/C,[6],103 % of control
CCCCN(CCCC)CC(O)c1cc2ccccc2c2cc(Br)ccc12 (stereo not given),T/C,[7],100 % of control
same,T/C,[8],102 % of control
same,T/C,[9],100 % of control
O=C(Cn1ccc(=O)[nH]c1=O)N1CCOCC1,T/C,"dose: 100.0 mg/kg/injection, schedule: Q04DX003 (ip), vehicle: water",100 % of control
same,T/C,"dose: 200.0 mg/kg/injection, schedule: Q04DX003 (ip), vehicle: water",100 % of control
same,T/C,"dose: 400.0 mg/kg/injection, schedule: Q04DX003 (ip), vehicle: water",100 % of control
COc1ccc2c(c1)SC1=NNC(=O)CN12,T/C,"dose: 60.0 mg/kg/injection, schedule: Q01DX005 (ip), vehicle: Klucel (hydroxypropylcellulose) (HPC)",89 % of control
same,T/C,"dose: 120.0 mg/kg/injection, schedule: Q01DX005 (ip), vehicle: Klucel (hydroxypropylcellulose) (HPC)",89 % of control
same,T/C,"dose: 240.0 mg/kg/injection, schedule: Q01DX005 (ip), vehicle: Klucel (hydroxypropylcellulose) (HPC)",91 % of control
CCOC(=O)c1ccc(NC(=NC)c2ccccc2)cc1,T/C,[2],108 % of control
same,T/C,[3],105 % of control
same,T/C,"dose: 200.0 mg/kg/injection, schedule: Q01DX009 (ip), vehicle: saline with Tween-80",97 % of control
COc1ccc2c(N)c3cccc[n+]3cc2c1OC,T/C,"dose: 6.25 mg/kg/injection, schedule: Q04DX003 (ip), vehicle: water",106 % of control and 108 % of control
same,T/C,"dose: 12.5 mg/kg/injection, schedule: Q04DX003 (ip), vehicle: water",116 % of control and 121 % of control
same,T/C,"dose: 25.0 mg/kg/injection, schedule: Q04DX003 (ip), vehicle: water",118 % of control and 122 % of control
same,T/C,"dose: 50.0 mg/kg/injection, schedule: Q04DX003 (ip), vehicle: water",103 % of control
COC(=O)/C=C/CS(C)(=O)=O,T/C,[7],105 % of control
same,T/C,[8],101 % of control
same,T/C,[9],99 % of control
O=C(O)c1ccc(C(=O)N(CCP(c2ccccc2)c2ccccc2)CCP(c2ccccc2)c2ccccc2)cc1C(=O)O,T/C,[4],110 % of control
same,T/C,[5],90 % of control
same,T/C,[6],94 % of control
CC12CC(CC1=O)CC2S(=O)(=O)O (stereo not given),T/C,[10],96 % of control
same,T/C,[11],102 % of control
CC1=NN(C(=O)c2ccncc2)C(=O)C1N=Nc1ccc2ccccc2c1 (stereo not given),T/C,[2],101 % of control
same,T/C,[3],102 % of control
O=S(=O)(O)O.[NH-]CCC[NH-].[Pt+2],T/C,"dose: 6.25 mg/kg/injection, schedule: Q04DX002 (ip), vehicle: saline",168 % of control
same,T/C,"dose: 12.5 mg/kg/injection, schedule: Q04DX002 (ip), vehicle: saline",158 % of control
CCN1C(=O)C(=NO)C(=O)N(CC)C1=S.CCN1C(=O)C(=N[O-])C(=O)N(CC)C1=S.CCN1C(=O)C(=N[O-])C(=O)N(CC)C1=S.[Fe+3],T/C,"dose: 100.0 mg/kg/injection, schedule: Q04DX002 (ip), vehicle: saline with Tween-80",94 % of control
same,T/C,"dose: 200.0 mg/kg/injection, schedule: Q04DX002 (ip), vehicle: saline with Tween-80",102 % of control
CC1(O)c2ccccc2-c2nc3ccccc3nc21 (stereo not given),T/C,"dose: 100.0 mg/kg/injection, schedule: Q04DX003 (ip), vehicle: saline sonified",110 % of control
same,T/C,"dose: 200.0 mg/kg/injection, schedule: Q04DX003 (ip), vehicle: saline sonified",110 % of control
same,T/C,"dose: 400.0 mg/kg/injection, schedule: Q04DX003 (ip), vehicle: saline sonified",100 % of control
c1ccc(C2SC(c3ccccc3)SC(c3ccccc3)S2)cc1 (stereo not given),T/C,[4],109 % of control
same,T/C,[5],107 % of control
same,T/C,[6],108 % of control
same,T/C,"dose: 400.0 mg/kg/injection, schedule: Q01DX009 (ip), vehicle: Klucel (hydroxypropylcellulose) (HPC)",106 % of control
CN(C)Cc1[nH]c2ccccc2c1Sc1ccccc1,T/C,[12],100 % of control
same,T/C,"dose: 120.0 mg/kg/injection, schedule: Q01DX005 (ip), vehicle: saline with Tween-80",119 % of control
Cc1ccc(C(=O)CCl)c(C)c1,T/C,[13],110 % of control
same,T/C,[14],105 % of control
same,T/C,[15],110 % of control
CN(CCN1C(=O)c2cccc3cccc(c23)C1=O)CCN1C(=O)c2cccc3cccc(c23)C1=O,T/C,[7],95 % of control
same,T/C,[12],95 % of control
same,T/C,[8],87 % of control
same,T/C,[9],91 % of control
same,T/C,"dose: 240.0 mg/kg/injection, schedule: Q01DX005 (ip), vehicle: saline with Tween-80",88 % of control
CCOC(=O)c1sc(=S)n(C(C)C)c1C,T/C,"dose: 12.5 mg/kg/injection, schedule: Q01DX005 (ip), vehicle: saline with Tween-80",101 % of control
same,T/C,"dose: 25.0 mg/kg/injection, schedule: Q01DX005 (ip), vehicle: saline with Tween-80",101 % of control
same,T/C,[7],101 % of control and 102 % of control
same,T/C,[8],100 % of control
same,T/C,[9],98 % of control
COC(=O)CC1(C(=O)OC)c2ccc3ccccc3c2N(C#N)C1CCCBr (stereo not given),T/C,"dose: 100.0 mg/kg/injection, schedule: Q01DX001 (ip), vehicle: saline",109 % of control
same,T/C,"dose: 200.0 mg/kg/injection, schedule: Q01DX001 (ip), vehicle: saline",107 % of control
same,T/C,"dose: 400.0 mg/kg/injection, schedule: Q01DX001 (ip), vehicle: saline",100 % of control
CCOc1c(N=Nc2cccc([N+](=O)[O-])c2)c(C)nn1C(=S)S,T/C,"dose: 60.0 mg/kg/injection, schedule: Q01DX005 (ip), vehicle: Klucel + Tween-80",97 % of control
same,T/C,"dose: 120.0 mg/kg/injection, schedule: Q01DX005 (ip), vehicle: Klucel + Tween-80",97 % of control
same,T/C,"dose: 240.0 mg/kg/injection, schedule: Q01DX005 (ip), vehicle: Klucel + Tween-80",98 % of control
O=Cc1cccc(CC(O)(C(F)(F)F)C(F)(F)F)n1,T/C,"dose: 12.5 mg/kg/injection, schedule: Q01DX009 (ip), vehicle: saline with Tween-80",95 % of control
same,T/C,[13],100 % of control
same,T/C,[1],100 % of control
same,T/C,[14],100 % of control
same,T/C,[2],100 % of control
same,T/C,[15],95 % of control
O=C(Nc1ccccc1)ON=C(c1ccccc1)c1ccccc1,T/C,[10],97 % of control
same,T/C,[11],93 % of control
same,T/C,"dose: 400.0 mg/kg/injection, schedule: Q01DX001 (ip), vehicle: saline with Tween-80",112 % of control
COC(=O)C1(C(=O)OC)ON1C(C)(C)C (stereo not given),T/C,"dose: 50.0 mg/kg/injection, schedule: Q01DX005 (ip), vehicle: Klucel (hydroxypropylcellulose) (HPC)",100 % of control
same,T/C,"dose: 100.0 mg/kg/injection, schedule: Q01DX005 (ip), vehicle: Klucel (hydroxypropylcellulose) (HPC)",96 % of control
same,T/C,"dose: 200.0 mg/kg/injection, schedule: Q01DX005 (ip), vehicle: Klucel (hydroxypropylcellulose) (HPC)",97 % of control
CC1CC(C)/C(=N/NC(N)=S)C(C(O)CC2CC(=O)NC(=O)C2)C1 (stereo not given),T/C,[7],109 % of control
same,T/C,[8],105 % of control
same,T/C,[9],104 % of control
CCC(=O)/C=C/c1ccc(N(C)C)cc1,T/C,"dose: 100.0 mg/kg/injection, schedule: Q04DX003 (ip), vehicle: Klucel (hydroxypropylcellulose) (HPC)",93 % of control
same,T/C,"dose: 200.0 mg/kg/injection, schedule: Q04DX003 (ip), vehicle: Klucel (hydroxypropylcellulose) (HPC)",89 % of control
CCOC(=O)C(Cc1csc2ccc(Cl)cc12)NC(C)=O (stereo not given),T/C,[4],94 % of control
same,T/C,[5],95 % of control
same,T/C,[6],99 % of control
COc1ccccc1OCC(=O)c1ccccc1,T/C,"dose: 10.0 mg/kg/injection, schedule: Q01DX005 (ip), vehicle: Klucel (hydroxypropylcellulose) (HPC)",102 % of control
same,T/C,"dose: 20.0 mg/kg/injection, schedule: Q01DX005 (ip), vehicle: Klucel (hydroxypropylcellulose) (HPC)",96 % of control
same,T/C,"dose: 40.0 mg/kg/injection, schedule: Q01DX005 (ip), vehicle: Klucel (hydroxypropylcellulose) (HPC)",100 % of control
Cc1cc(=O)n2c(nc3cc([N+](=O)[O-])ccc32)s1,T/C,[4],98 % of control
same,T/C,[5],99 % of control
same,T/C,[6],98 % of control
